Source: patent US10517889B2, “Modulators of SMAD7 expression” (Ionis Pharmaceuticals, Inc., priority 2017, dated 2019)

Experiments:
[1] = Oligonucleotide concentration in liver and colon by LC-MS/MS after subcutaneous administration in CD-1 mice (Example 6); assay type: in vivo; conditions: 50 mg/kg subcutaneously twice a week for 7 weeks, 48 hours after the last dose
Experimental: Groups of 8-9 week old male CD-1 mice were injected subcutaneously twice a week for 7 weeks with 50 mg/kg of Ionis oligonucleotides (100 mg/kg/week dose). Each group contained 4 mice. One group of male CD-1 mice was injected subcutaneously twice a week for 7 weeks with PBS. Plasma was collected for analysis on day 28.
Oligonucleotide concentrations in the liver and colon were analyzed using LC-MS/MS method.

[2] = Hematology assays after oral gavage in CD-1 mice (Example 7); assay type: in vivo; parameters: RBC: unit not given here; conditions: 500 mg/kg oral gavage once daily for 4 weeks
Experimental: (§1) Groups of 7-8 week old male CD-1 mice were given an oral gavage dose once daily for 4 weeks of 500 mg/kg of Ionis SMAD7 oligonucleotides. Each group contained 8 mice. One group of male CD-1 mice was administered saline by oral gavage daily.
Blood obtained from all mouse groups was measured by an ADVIA2120i hematology analyzer (Siemens, USA) for measurements of the various blood cells, as well as other hematology markers. None of the Ionis SMAD7 oligonucleotides caused changes in the levels of any of the hematology markers outside the expected range for antisense oligonucleotides.

[3] = Hematology assays after subcutaneous administration in beagle dogs (Example 8); assay type: in vivo; conditions: 30 mg/kg subcutaneous days 1, 3, 5, 8, 15, 22, 29
Experimental: (§2) There were 4 animals per group.
Blood samples were collected from the cephalic vein or saphenous vein of each animal. About 0.5 mL of blood samples was put into tubes containing the potassium salt of EDTA. Blood obtained from all dog groups was measured using an ADVIA2120i hematology analyzer for measurements of the various blood cells, as well as other hematology markers.

[4] = Blood chemistry markers after oral gavage in CD-1 mice (Example 7); assay type: in vivo; conditions: 500 mg/kg oral gavage once daily for 4 weeks, day 30
Experimental: The objective of this study was to evaluate the tolerability and pharmacodynamics of select Ionis human SMAD7 antisense oligonucleotides in CD-1 mice following 4 weeks of treatment. The mice were administered oligonucleotides by oral gavage.
as §1
Levels of transaminases, albumin, and BUN were measured using a Toshiba 200FR NEO chemistry analyzer (Toshiba Co., Japan).

[5] = tested on: dog SMAD7 mRNA; test: Pharmacology: dog SMAD7 mRNA expression in liver, kidney, duodenum, ileum and colon after subcutaneous administration in beagle dogs (Example 8); assay type: in vivo; conditions: 30 mg/kg subcutaneous, necropsy, normalized to HPRT1
Experimental: as §2
The pharmacological activity of the Ionis oligonucleotides in dogs was assessed by measuring dog SMAD7 mRNA expression in liver, kidney, duodenum, ileum, and colon at necropsy. All the human ASOs used are complementary to dog SMAD7 mRNA.
Tissue samples from all dogs were analyzed for SMAD7 mRNA expression using the primer probe set RTS34649 (forward sequence […], designated SEQ ID NO: 2740; reverse sequence […], designated SEQ ID NO: 2741; probe sequence […], designated SEQ ID NO: 2742), which was normalized to mRNA levels of the housekeeping gene, HPRT1. One-way ANOVA with Dunnet's comparison test was used for statistical analysis.

[6] = Oligonucleotide concentration in tissues by LC-MS/MS after subcutaneous administration in beagle dogs (Example 8); assay type: in vivo; conditions: 30 mg/kg subcutaneous, 48 hours after the last dose
Experimental: as §2
Oligonucleotide concentrations of both ION 830025 and ION 798781 were detected in various tissues by LC-MS/MS analysis. The results are presented below, expressed as μg/g tissue. The data was collected 48 hours after the last dose.

[7] = tested on: human peripheral blood mononuclear cells (PBMCs); test: Human PBMC activation assay, cytokine levels (IL-10, IL-6, MCP-1, TNF-α) in supernatant after 24 hours (Example 9); conditions: human PBMC supernatant after 24 hours
Experimental: Ionis SMAD7 oligonucleotides were tested in an in vitro assay for potential immunostimulatory properties in an in vitro human peripheral blood mononuclear cell (PBMC) activation assay.
Blood samples were collected from healthy human volunteers in heparinized vials and mixed well. Human PBMCs were isolated by gradient centrifugation using Ficoll-Histopaque. The cells were washed, counted and resuspended in medium. The PBMCs were plated in a 24-well culture plate and various concentrations of oligonucleotides were added to the media. An oligonucleotide historically known to promote an inflammatory response was used as a positive control, whereas an oligonucleotide known not to be pro-inflammatory was used as a negative control. […] The supernatants were collected after 24 hours and analyzed for cytokine levels using MSD platform.

829994 (GGAGGCAGGGCCGCGA; 3-10-3 cEt gapmer, further chemistry not given here) [compound 829994]
Oligonucleotide concentration, Colon [1]: 11 μg/g tissue | Oligonucleotide concentration, Liver [1]: 45 μg/g tissue | Basophils [2]: 0.01 10^3/μL | Eosinophils [2]: 0.09 10^3/μL | Hematocrit [2]: 51.5% | Hemoglobin [2]: 15.2 g/dL | Lymphocytes [2]: 80.4% | MCH [2]: 15.1 pg | MCHC [2]: 29.5 g/dL | MCV [2]: 51.2 fL | Monocytes [2]: 0.10 10^3/μL | Neutrophils [2]: 14.0% | RBC [2]: 10.1 | Reticulocytes [2]: 3.0% | WBC [2]: 4.1 10^3/μL | platelets [2]: 1219 10^3/μL | Basophils [3]: 0.5% | Eosinophils [3]: 1.8% | Hematocrit [3]: 44% | Hemoglobin [3]: 15.3 g/dL | Lymphocytes [3]: 26% | MCH [3]: 23.2 pg | MCHC [3]: 35.1 g/dL | MCV [3]: 66 fL | Monocytes [3]: 6.3% | Neutrophils [3]: 65% | PLT [3]: 287 ^3/μL | RBC [3]: 6.6 ^6/L | Reticulocytes [3]: 0.9% | WBC [3]: 12.5 ^3/μL | ALT [4]: 38 IU/L | AST [4]: 71 IU/L | Albumin [4]: 3.2 g/dL | BUN [4]: 25 mg/dL | Bilirubin [4]: 0.3 mg/dL | % inhibition of SMAD7 mRNA expression (compared to control), Distal colon ([5]; distal colon): 29% | % inhibition of SMAD7 mRNA expression (compared to control), Duodenum ([5]; duodenum): 2% | % inhibition of SMAD7 mRNA expression (compared to control), Ileum ([5]; ileum): 32% | % inhibition of Smad7 mRNA expression (compared to control), Kidney ([5]; kidney): 0% | % inhibition of Smad7 mRNA expression (compared to control), Liver ([5]; liver): 0% | % inhibition of SMAD7 mRNA expression (compared to control), Proximal colon ([5]; proximal colon): 34% | Full length oligonucleotide, Distal colon ([6]; distal colon): 7 µg/g | Full length oligonucleotide, Duodenum ([6]; duodenum): 23 µg/g | Full length oligonucleotide, Ileum ([6]; ileum): 12 µg/g | Full length oligonucleotide, Kidney ([6]; kidney): 894 µg/g | Full length oligonucleotide, Liver ([6]; liver): 335 µg/g | Full length oligonucleotide, Proximal colon ([6]; proximal colon): 11 µg/g | Levels of IL-6 ([7]; 0.0128 μM oligonucleotide): 4.1 pg/mL | Levels of IL-10 ([7]; 0.0128 μM oligonucleotide): 2.0 pg/mL | Levels of MCP-1 ([7]; 0.0128 μM oligonucleotide): 299.8 pg/mL | Levels of TNF-α ([7]; 0.0128 μM oligonucleotide): 2.5 pg/mL | Levels of IL-6 ([7]; 0.064 μM oligonucleotide): 3.8 pg/mL | Levels of IL-10 ([7]; 0.064 μM oligonucleotide): 1.8 pg/mL | Levels of MCP-1 ([7]; 0.064 μM oligonucleotide): 379.8 pg/mL | Levels of TNF-α ([7]; 0.064 μM oligonucleotide): 2.9 pg/mL | Levels of IL-6 ([7]; 0.32 μM oligonucleotide): 4.5 pg/mL | Levels of IL-10 ([7]; 0.32 μM oligonucleotide): 1.8 pg/mL | Levels of MCP-1 ([7]; 0.32 μM oligonucleotide): 489.7 pg/mL | Levels of TNF-α ([7]; 0.32 μM oligonucleotide): 3.0 pg/mL | Levels of IL-6 ([7]; 1.6 μM oligonucleotide): 15.9 pg/mL | Levels of IL-10 ([7]; 1.6 μM oligonucleotide): 5.2 pg/mL | Levels of MCP-1 ([7]; 1.6 μM oligonucleotide): 1300.0 pg/mL | Levels of TNF-α ([7]; 1.6 μM oligonucleotide): 8.0 pg/mL | Levels of IL-6 ([7]; 8 μM oligonucleotide): 202.5 pg/mL | Levels of IL-10 ([7]; 8 μM oligonucleotide): 8.0 pg/mL | Levels of MCP-1 ([7]; 8 μM oligonucleotide): 3370.0 pg/mL | Levels of TNF-α ([7]; 8 μM oligonucleotide): 63.2 pg/mL | Levels of IL-6 ([7]; 40 μM oligonucleotide): 66.1 pg/mL | Levels of IL-10 ([7]; 40 μM oligonucleotide): 4.3 pg/mL | Levels of MCP-1 ([7]; 40 μM oligonucleotide): 1998.4 pg/mL | Levels of TNF-α ([7]; 40 μM oligonucleotide): 32.3 pg/mL | Levels of IL-6 ([7]; 200 μM oligonucleotide): 97.1 pg/mL | Levels of IL-10 ([7]; 200 μM oligonucleotide): 3.8 pg/mL | Levels of MCP-1 ([7]; 200 μM oligonucleotide): 391.7 pg/mL | Levels of TNF-α ([7]; 200 μM oligonucleotide): 28.6 pg/mL
